Data as given in the supplement of paper PMC10307832.

Tests used:
Experiment in all cases: relative viability (nuclei count vs DMSO), 5 days (fraction); higher = more cells survive
[1] = compound: CC1(C)CCC(CN2CCN(c3ccc(C(=O)NS(=O)(=O)c4ccc(NCC5CCOCC5)c([N+](=O)[O-])c4)c(Oc4cnc5[nH]ccc5c4)c3)CC2)=C(c2ccc(Cl)cc2)C1 [Venetoclax] + Cc1cc(Nc2cc(N3CCN(C)CC3)nc(Sc3ccc(NC(=O)C4CC4)cc3)n2)n[nH]1 [Tozasertib] (partner 0.1 µM)
Procedure, shortened: (§1)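 A single step with final 0.05% Triton X-100, 1% formaldehyde and 1 ug/ml Hoechst fixed the cells and stained nuclei 5 days after treatment. Lung cancer cell lines in 1536-well plates had been treated by pin tool the day after seeding with one drug alone or a fixed anchor-drug dose plus five library-drug doses (not always all listed) in √10 steps, and nuclei were counted on 4× images. Relative viability is the ratio of nuclei in treated wells to nuclei in vehicle wells, taken as the median of duplicate plates.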

[2] = compound: CC1(C)CCC(CN2CCN(c3ccc(C(=O)NS(=O)(=O)c4ccc(NCC5CCOCC5)c([N+](=O)[O-])c4)c(Oc4cnc5[nH]ccc5c4)c3)CC2)=C(c2ccc(Cl)cc2)C1 [Venetoclax] + CS(=O)(=O)N1CCN(Cc2cc3nc(-c4cccc5[nH]ncc45)nc(N4CCOCC4)c3s2)CC1 [Pictilisib] (partner 1 µM)
Procedure, shortened: as §1

[3] = compound: CC1(C)CCC(CN2CCN(c3ccc(C(=O)NS(=O)(=O)c4ccc(NCC5CCOCC5)c([N+](=O)[O-])c4)c(Oc4cnc5[nH]ccc5c4)c3)CC2)=C(c2ccc(Cl)cc2)C1 [Venetoclax] + C[C@]1(O)C[C@@H](c2nc(-c3ccc4ccc(-c5ccccc5)nc4c3)c3c(N)nccn32)C1 [Linsitinib] (partner 1 µM)
Procedure, shortened: as §1

[4] = compound: CC1(C)CCC(CN2CCN(c3ccc(C(=O)NS(=O)(=O)c4ccc(NCC5CCOCC5)c([N+](=O)[O-])c4)c(Oc4cnc5[nH]ccc5c4)c3)CC2)=C(c2ccc(Cl)cc2)C1 [Venetoclax] + COc1cccc2cc(-c3nc([C@H]4CC[C@H](C(=O)O)CC4)n4ncnc(N)c34)[nH]c12 [OSI-027] (partner 0.5 µM)
Procedure, shortened: as §1

| Cell Line | relative viability ([1]; first compound 0.01 µM) | relative viability ([1]; first compound 0.03162 µM) | relative viability ([1]; first compound 0.1 µM) | relative viability ([1]; first compound 0.3162 µM) | relative viability ([1]; first compound 1 µM) | relative viability ([2]; first compound 0.01 µM) | relative viability ([2]; first compound 0.03162 µM) | relative viability ([2]; first compound 0.1 µM) | relative viability ([2]; first compound 0.3162 µM) | relative viability ([2]; first compound 1 µM) | relative viability ([3]; first compound 0.01 µM) | relative viability ([3]; first compound 0.03162 µM) | relative viability ([3]; first compound 0.1 µM) | relative viability ([3]; first compound 0.3162 µM) | relative viability ([3]; first compound 1 µM) | relative viability ([4]; first compound 0.01 µM) | relative viability ([4]; first compound 0.03162 µM) | relative viability ([4]; first compound 0.1 µM) | relative viability ([4]; first compound 0.3162 µM) | relative viability ([4]; first compound 1 µM) |
| --- | --- | --- | --- | --- | --- | --- | --- | --- | --- | --- | --- | --- | --- | --- | --- | --- | --- | --- | --- | --- |
| NCI-H1395 | 0.851 | 0.85 | 0.705 | 0.782 | 0.762 | 0.643 | 0.74 | 0.611 | 0.602 | 0.633 | 0.951 | 0.996 | 1.04 | 1.25 | 1.11 | 0.623 | 0.603 | 0.605 | 0.656 | 0.662 |
| NCI-H1437 | 0.392 | 0.426 | 0.408 | 0.376 | 0.336 | 0.538 | 0.443 | 0.435 | 0.386 | 0.404 | 0.92 | 1.08 | 0.975 | 0.952 | 0.932 | 0.942 | 0.888 | 0.845 | 0.763 | 0.802 |
| NCI-H1651 | 0.751 | 0.681 | 0.636 | 0.639 | 0.599 | 0.6 | 0.626 | 0.481 | 0.482 | 0.533 | 0.926 | 1.13 | 0.938 | 0.962 | 0.995 | 0.804 | 0.714 | 0.62 | 0.596 | 0.658 |
| NCI-H1666 | 0.706 | 0.589 | 0.623 | 0.622 | 0.587 | 0.457 | 0.448 | 0.42 | 0.439 | 0.534 | 0.909 | 0.864 | 0.731 | 0.759 | 0.745 | 0.699 | 0.843 | 0.839 | 0.733 | 0.784 |
| NCI-H1734 | 0.275 | 0.241 | 0.216 | 0.269 | 0.239 | 0.507 | 0.508 | 0.398 | 0.513 | 0.488 | 0.894 | 0.911 | 0.803 | 0.855 | 0.865 | 0.616 | 0.568 | 0.515 | 0.57 | 0.542 |
| NCI-H1755 | 0.569 | 0.504 | 0.586 | 0.593 | 0.547 | 0.346 | 0.482 | 0.398 | 0.449 | 0.465 | 0.978 | 1 | 0.848 | 0.964 | 0.969 | 0.73 | 0.74 | 0.68 | 0.757 | 0.667 |
| NCI-H1793 | 0.227 | 0.347 | 0.321 | 0.297 | 0.237 | 0.371 | 0.445 | 0.328 | 0.241 | 0.321 | 0.905 | 1.04 | 0.692 | 0.818 | 0.778 | 0.299 | 0.37 | 0.207 | 0.239 | 0.186 |
| NCI-H1915 | 0.452 | 0.454 | 0.392 | 0.433 | 0.427 | 0.953 | 0.911 | 0.894 | 0.979 | 0.92 | 1.02 | 1.11 | 0.982 | 1.07 | 1.03 | 0.587 | 0.624 | 0.596 | 0.612 | 0.586 |
| NCI-H1944 | 0.267 | 0.246 | 0.238 | 0.273 | 0.228 | 0.369 | 0.37 | 0.355 | 0.383 | 0.36 | 1.4 | 1.28 | 1.15 | 1.16 | 1.23 | 0.483 | 0.431 | 0.378 | 0.411 | 0.376 |
| NCI-H1975 | 0.763 | 0.711 | 0.726 | 0.658 | 0.374 | 0.351 | 0.33 | 0.258 | 0.284 | 0.282 | 1.02 | 0.971 | 0.869 | 0.92 | 0.92 | 0.768 | 0.788 | 0.667 | 0.702 | 0.68 |
| NCI-H1993 | 0.588 | 0.561 | 0.614 | 0.58 | 0.607 | 1.03 | 0.802 | 0.8 | 0.685 | 0.78 | 0.73 | 0.651 | 0.739 | 0.775 | 0.749 | 0.562 | 0.505 | 0.519 | 0.486 | 0.605 |
| NCI-H2009 | 0.775 | 0.748 | 0.743 | 0.759 | 0.538 | 0.814 | 0.955 | 0.778 | 0.838 | 0.774 | 1.2 | 1.14 | 1.09 | 1.09 | 1.11 | 0.655 | 0.668 | 0.602 | 0.624 | 0.573 |
| NCI-H2023 | 0.328 | 0.407 | 0.392 | 0.393 | 0.218 | 0.259 | 0.234 | 0.222 | 0.23 | 0.227 | 0.685 | 0.636 | 0.657 | 0.682 | 0.678 | 0.44 | 0.363 | 0.313 | 0.427 | 0.312 |
| NCI-H2085 | 0.833 | 0.77 | 0.757 | 0.761 | 0.815 | 0.458 | 0.48 | 0.417 | 0.507 | 0.502 | 0.881 | 0.782 | 0.853 | 0.909 | 0.853 | 0.838 | 0.769 | 0.707 | 0.746 | 0.53 |
| NCI-H2087 | 0.278 | 0.261 | 0.245 | 0.241 | 0.229 | 1.08 | 1.08 | 0.832 | 0.921 | 0.789 | 1.01 | 1.13 | 1.01 | 0.983 | 0.945 | 0.534 | 0.735 | 0.456 | 0.539 | 0.435 |
